What was measured:
MIA PaCa-2 cells = test: Growth inhibition activity on KRAS-G12C mutant cell line (CellTiter-Glo 3D); assay type: cell-based, human; settings: MIA PaCa-2, 3-day culture with compound, Table 3-1
Outline: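 MIA PaCa-2 cells in RPMI1640 with 10% FBS, U-bottom wells, cultured 1 day before compound (0.2% DMSO final), then 3 days at 37 °C, 5% CO2. Viability by CellTiter-Glo 3D luminescence; growth inhibition versus untreated wells gives IC50 (nM).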

[1] = target: T1, interaction between GMPPNP-bound recombinant K-Ras4B G12C mutant protein and cRAF RAS-binding domain (cRAF-RBD) (Homo sapiens, UniProt P01116, G12C); test: Inhibitory activity on interaction between KRAS G12C and cRAF (Alpha technology); settings: GMPPNP-bound KRAS G12C incubated with compound 25° C. 1 hour; Table 2-1; read-out: IC50
T1 construct: His-tag (N)
T1 sequence (P01116 with tags, fused parts or gaps isoform P01116-2 G12C): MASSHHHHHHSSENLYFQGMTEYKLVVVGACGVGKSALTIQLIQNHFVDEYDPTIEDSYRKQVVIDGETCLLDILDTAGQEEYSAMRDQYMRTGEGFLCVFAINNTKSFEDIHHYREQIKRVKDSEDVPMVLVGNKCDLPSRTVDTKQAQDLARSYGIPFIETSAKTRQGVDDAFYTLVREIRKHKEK
Outline: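 His-tagged K-Ras4B G12C (aa 1-169), GMPPNP-loaded, preincubated with compound 1 h at 25° C in pH 7.5 Tris buffer with MgCl2, TCEP, Tween 20. cRAF-RBD (aa 50-132) and Alpha reagents then added for 1.5 h; Alpha signal normalised to DMSO (0%) and GDP-bound KRAS (100%); IC50 from dose titration.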

SMILES | IC50 (MIA PaCa-2 cells; Homo sapiens, MIA PaCa-2, 72 h) | IC50 [1] | IC50 (MIA PaCa-2 cells)
Cc1cc2c(nc(C)n2C)c2c1-c1cccn3c(C(=O)c4cc(F)c(NC(=O)/C=C/CN[C@H]5CCOC5)c(F)c4)cc(c13)CCN2C (single isomer, unassigned) [Example 107] | 0.0297 µM | 0.0237 µM | 
Cc1cc2c(ncn2C)c2c1-c1cccn3c(C(=O)c4cc(F)c(NC(=O)/C=C/CN[C@H]5CCOC5)c(F)c4)cc(c13)CCN2C (single isomer, unassigned) [Example 117] | 0.0553 µM | 0.0205 µM | 
CC1Cc2cc(C(=O)c3cc(F)c(NC(=O)/C=C/CNC4(C)COC4)c(F)c3)n3cccc(c23)-c2c(C(F)(F)F)cc3c(ncn3C)c2O1 (single isomer, unassigned) [Example 130-1, (E)-N-(4-(9,13-dimethyl-7-(trifluoromethyl)-13,14-dihydro-9H-imidazo[4″,5″:5′,6′]benzo[1′,2′:2,3]oxocino[4,5,6-hi]indolizine-2-carbonyl)-2,6-difluorophenyl)-4-((3-methyloxetan-3-yl)amino)but-2-enamide] |  | 0.0263 µM | 0.0174 µM
CC1Cc2cc(C(=O)c3cc(F)c(NC(=O)/C=C/CNC4(C)COC4)c(F)c3)n3cccc(c23)-c2c(C(F)(F)F)cc3c(ncn3C)c2O1 (single isomer, unassigned) [Example 130-2, (E)-N-(4-(9,13-dimethyl-7-(trifluoromethyl)-13,14-dihydro-9H-imidazo[4″,5″:5′,6′]benzo[1′,2′:2,3]oxocino[4,5,6-hi]indolizine-2-carbonyl)-2,6-difluorophenyl)-4-((3-methyloxetan-3-yl)amino)but-2-enamide] |  | 3.76 µM | 3.41 µM
CC1Cc2cc(C(=O)c3cc(F)c(NC(=O)/C=C/CNC4(C)COC4)c(F)c3)n3cccc(c23)-c2c(C(F)(F)F)cc3c(ncn3C)c2O1 (single isomer, unassigned) [Example 131, (E)-N-(4-(9,13-dimethyl-7-(trifluoromethyl)-13,14-dihydro-9H-imidazo[4″,5″:5′,6′]benzo[1′,2′:2,3]oxocino[4,5,6-hi]indolizine-2-carbonyl)-2,6-difluorophenyl)-4-((3-methyloxetan-3-yl)amino)but-2-enamide] |  | 0.0279 µM | 0.0408 µM
Cc1cc2c(C)n(C)nc2c2c1-c1cccn3c(C(=O)c4cc(F)c(NC(=O)/C=C/CNC5(C)COC5)c(F)c4)cc(c13)CCN2C (single isomer, unassigned) [Example 145, (E)-N-(2,6-difluoro-4-(7,9,10,12-tetramethyl-10,12,13,14-tetrahydro-indolizino[8′,1′:4,5,6]-azocino[3,2-g]indazole-2-carbonyl)phenyl)4-((3-methyloxetan-3-yl)-amino)-but-2-enamide] | 0.162 µM | 0.0723 µM | 
CN1CCc2cc(C(=O)c3cc(F)c(NC(=O)/C=C/CNC4(C)COC4)c(F)c3)n3cccc(c23)-c2c(C(F)(F)F)cc3c(ncn3C3CC3)c21 (single isomer, unassigned) [Example 153, (E)-N-(4-(9-cyclopropyl-12-methyl-7-(trifluoro-methyl)-9,12,13,14-tetra-hydroimidazo[4″,5″:5′,6′]-benzo[1′,2′:2,3]azocino-[4,5,6-hi]indolizine-2-carbonyl)-2,6-difluoro-phenyl)-4-((3-methyloxe-tan-3-yl)amino)but-2-enamide] | 0.118 µM | 0.0315 µM | 
CN1CCc2nc(C(=O)c3cc(F)c(NC(=O)/C=C/CN[C@H]4CCOC4)c(F)c3)n3cccc(c23)-c2c(C(F)(F)F)cc3c(ncn3C)c21 (single isomer, unassigned) [Example 167] | 0.0164 µM | 0.0279 µM | 

Now those with a lower IC50 [1], led by results:

IC50 (MIA PaCa-2 cells; Homo sapiens, MIA PaCa-2, 72 h) | IC50 [1] | IC50 (MIA PaCa-2 cells) | SMILES
0.0155 µM | 0.0192 µM |  | COCc1nc2c3c(c(C)cc2n1C)-c1cccn2c(C(=O)c4cc(F)c(NC(=O)/C=C/CN[C@H]5CC[C@H](OC)CC5)c(F)c4)cc(c12)CCN3C (single isomer, unassigned) [Example 105, (E)-N-(2,6-difluoro-4-(10-(methoxymethyl)-7,9,12-trimethyl-9,12,13,14-tetra-hydroimidazo[4″,5″:5′,6′]-benzo[1′,2′:2,3]azocino-[4,5,6-hi]indolizine-2-carbonyl)phenyl)-4-(((1r,4r)-4-methoxycyclo-hexyl)amino)but-2-en-amide]
0.022 µM | 0.018 µM |  | COCc1nc2c3c(c(C)cc2n1C)-c1cccn2c(C(=O)c4cc(F)c(NC(=O)/C=C/CN[C@H]5CCOC5)c(F)c4)cc(c12)CCN3C (single isomer, unassigned) [Example 106]
0.00711 µM | 0.0088 µM |  | COc1cc2c(nc(C)n2C)c2c1-c1cccn3c(C(=O)c4cc(F)c(NC(=O)/C=C/CN[C@H]5CCOC5)c(F)c4)cc(c13)CCN2C (single isomer, unassigned) [Example 129]
0.00759 µM | 0.00413 µM |  | COc1cc2c(nc(C)n2C)c2c1-c1cccn3c(C(=O)c4cc(F)c(NC(=O)/C=C/CNC5(C)CC5)c(F)c4)cc(c13)CCN2C (single isomer, unassigned) [Example 140, (E)-N-(2,6-difluoro-4-(7-methoxy-9,10,12-trimethyl-9,12,13,14-tetrahydroimidazo[4″,5″:5′,6′]benzo[1′,2′:2,3]azocino[4,5,6-hi]indolizine-2-carbonyl)phenyl)-4-((1-methylcyclopropyl)amino)but-2-enamide]
0.0343 µM | 0.00971 µM |  | COc1cc2c(nc(C)n2C)c2c1-c1cccn3c(C(=O)c4cc(F)c(NC(=O)/C=C/CNC5(C)COC5)c(F)c4)cc(c13)CCN2C (single isomer, unassigned) [Example 141, (E)-N-(2,6-difluoro-4-(7-methoxy-9,10,12-trimethyl-9,12,13,14-tetrahydroimidazo[4″,5″: 5′,6′]benzo[1′,2′:2,3]-azocino[4,5,6-hi]indol-izine-2-carbonyl)phenyl)-4-((3-methyloxetan-3-yl)-amino)but-2-enamide]
0.00793 µM | 0.0102 µM |  | Cc1c2cc(C(F)(F)F)c3c(c2nn1C)N(C)CCc1cc(C(=O)c2cc(F)c(NC(=O)/C=C/CN[C@H]4CCOC4)c(F)c2)n2cccc-3c12 (single isomer, unassigned) [Example 154]
0.0135 µM | 0.00895 µM |  | Cc1c2cc(C(F)(F)F)c3c(c2nn1C)N(C)CCc1cc(C(=O)c2cc(F)c(NC(=O)/C=C/CNC4(C)CC4)c(F)c2)n2cccc-3c12 (single isomer, unassigned) [Example 155, (E)-N-(2,6-difluoro-4-(9,10,12-trimethyl-7-(trifluoromethyl)-10,12,13,14-tetrahydro-indolizino[8′,1′:4,5,6]-azocino[3,2-g]indazole-2-carbonyl)phenyl)-4-((1-methylcyclopropyl)-amino)but-2-enamide]
0.00816 µM | 0.00722 µM |  | COc1cc2c(ncn2C)c2c1-c1cccn3c(C(=O)c4cc(F)c(NC(=O)/C=C/CN[C@H]5CCOC5)c(F)c4)cc(c13)CCN2C (single isomer, unassigned) [Example 159]
0.00925 µM | 0.00571 µM |  | COc1cc2c(ncn2C)c2c1-c1cccn3c(C(=O)c4cc(F)c(NC(=O)/C=C/CNC5(C)CC5)c(F)c4)cc(c13)CCN2C (single isomer, unassigned) [Example 160, (E)-N-(2,6-difluoro-4-(7-methoxy-9,12-dimethyl-9,12,13,14-tetrahydro-imidazo[4″,5″:5′,6′]benzo-[1′,2′:2,3]azocino[4,5,6-hi]indolizine-2-carbon-yl)phenyl)-4-((1-methyl-cyclopropyl)amino)but-2-enamide]
